Reference: patent US5008267A, “Pyrimidinedione compounds, method of producing the same and antiarrythmic agents containing the same” (Mitsui Toatsu Chemicals, Incorporated, priority 1988, dated 1991)
Structures can show the parent of a compound that is named as a salt. Where two headings read alike, the source gives them in different places.

How the values were obtained:
[1] = system: Purkinje fiber of the right ventricular free wall (myocardial action potential); assay: Influence on myocardial action potential duration time (APD75), isolated right ventricular free wall, microelectrode in Purkinje fiber; format: cell-based, dog; details: Canis lupus familiaris, 20 min
[2] = system: ventricular muscle refractory period; assay: Influence on ventricular muscle refractory period (ERP); format: in vivo, mongrel dog; details: Canis lupus familiaris, iv, i.v., (W-Y)/Y×100, read-out: ERP (%; extensibility of refractory period)
Protocol: (2) Influence on ventricular muscle refractory period Refractory periods were measured in the following manner before and after each of the compounds and d-sotalol shown in Table 2 was separately administered to a vein or a duodenum, and ERP (%; extensibility of refractory period) was calculated from the measured values: ERP (%)=(W-Y)/Y×100 W: Refractory period after administration Y: Refractory period before administration To a mongrel adult dog, 30 mg/kg of pentobarbital was administered intravenously, and after being anesthetized, a pair of silver-silver chloride electrodes separated by 3 mm was sewn on an opened right ventricule, and electrical stimulation was given at an interval of 400 msec at a duration time of 4 msec under a current twice as much as the threshold. Afterward, a small amount of alcohol was injected into a sinus artery in order to extinguish a pacemaker activity, and the ventricular refractory period (ERP) was measured under ventricule pacing. That is, each 1 train comprised 10 stimulations having intervals of 400 msec, and an interval between the trains was usually 400 msec. However, this interval was shortened 10 msec by 10 msec at the time of the refractory period measurement, and an interval between the trains at the time when reaction to the first stimulation of the train disappeared was regarded as the refractory period. In this case, the electrical stimulation was fed in accordance with a program by a heart stimulation device (Diamedical Co., Ltd.; DHM-226-3).

[3] = 3.0 μg/ml, 20 minutes' incubation, (B-A)/A×100, read-out: APD75 (%)
[4] = 1.0 μg/ml, 20 minutes' incubation, (B-A)/A×100, read-out: APD75 (%)
[5] = 10.0 μg/ml, 20 minutes' incubation, (B-A)/A×100, read-out: APD75 (%)

SMILES | activation at 3 µg/mL [1, 3] [%] | change in vivo at 0.1 mg/kg [2] [%] | change in vivo at 0.3 mg/kg [2] [%] | change in vivo at 1 mg/kg [2] [%] | change in vivo at 3 mg/kg [2] [%] | activation at 1 µg/mL [1, 4] [%] | activation at 10 µg/mL [1, 5] [%] | activation at 1 µg/mL ([1]; read-out: APD75 (%)) [%] | activation at 3 µg/mL ([1]; read-out: APD75 (%)) [%] | activation at 10 µg/mL ([1]; read-out: APD75 (%)) [%]
Cn1c(N2CCN(CCCOc3ccc([N+](=O)[O-])c(C(F)(F)F)c3)CC2)cc(=O)n(C)c1=O [Compound 150, 1,3-dimethyl-6-{4-[3-(3-trifluoromethyl-4-nitrophenyloxy)propyl]piperazin-1-yl}-2,4(1H,3H)-pyrimidinedione oxalate] | 16 | 0 | 0 | 6.3 | 6.3 |  |  |  |  | 
CCN(CCCNc1ccc([N+](=O)[O-])cc1)CCNc1cc(=O)n(C)c(=O)n1C [Compound 73, 1,3-dimethyl-6-{2-[N-ethyl-3-(4-nitroanilino)propylamino]ethylamino}-2,4(1H,3H)-pyrimidinedione hydrochloride] | 12 |  |  |  |  | 2 | 18 |  |  | 
Cn1c(N2CCN(CCCNc3ccc([N+](=O)[O-])cc3C(=O)c3ccccc3)CC2)cc(=O)n(C)c1=O [Compound 111, 1,3-dimethyl-6-{4-[3-(2-benzoyl-4-nitroanilino)propyl]piperazin-1-yl}-2,4(1H,3H)-pyrimidinedione oxalate] | 21 | 7.7 | 10.9 | 14 | 21 | 13 |  |  |  | 
Cn1c(N2CCN(CCCOc3ccc([N+](=O)[O-])cc3)CC2)cc(=O)n(C)c1=O [Compound 35, 1,3-dimethyl-6-{4-[3-(4-nitrophenoxy)propyl]piperazin-1-yl}-2,4(1H,3H)-pyrimidinedione hydrochloride] | 22 | 6 | 12 | 15.8 | 25.3 | 17 | 30 |  |  | 
Cn1c(N2CCN(CCOc3ccc([N+](=O)[O-])cc3)CC2)cc(=O)n(C)c1=O [Compound 53, 1,3-dimethyl-6-{4-[2-(4-nitrophenoxy)ethyl]piperazin-1-yl}-2,4(1H,3H)-pyrimidinedione hydrochloride] | 22 | 8.8 | 23 | 30.1 |  | 8 | 43 |  |  | 
COCCN(CCCc1ccc([N+](=O)[O-])cc1)CCNc1cc(=O)n(C)c(=O)n1C [Compound 171, 1,3-dimethyl-6-{2-[N-(2-methoxyethyl)-3-(4-nitrophenyl)propylamino]ethylamino}-2,4(1H,3H)-pyrimidinedione oxalate] | 23 |  |  |  |  | 19 | 38 |  |  | 
CC(=O)c1ccc(OCCN2CCN(c3cc(=O)n(C)c(=O)n3C)CC2)c([N+](=O)[O-])c1 [Compound 102] | 20 |  |  |  |  | 7 |  |  |  | 
Cn1c(N2CCN(CCCOc3cccc([N+](=O)[O-])c3)CC2)cc(=O)n(C)c1=O [Compound 38, 1,3-dimethyl-6-{4-[3-(3-nitrophenoxy)propyl]piperazin-1-yl}-2,4(1H,3H)-pyrimidinedione hydrochloride] | 34 | 0 | 0 | 7 | 14 | 15 |  |  |  | 
Cn1c(NCCNCCc2ccc([N+](=O)[O-])cc2)cc(=O)n(C)c1=O [Compound 16, 1,3-dimethyl-6-{2-[2-(4-nitrophenyl)ethylamino]ethylamino}-2,4(1H,3H)-pyrimidinedione oxalate] | 22 | 6.7 | 13.3 | 13.3 |  |  |  |  |  | 
Cn1c(N2CCN(CCCc3ccc(C(=O)c4ccccc4)cc3[N+](=O)[O-])CC2)cc(=O)n(C)c1=O [Compound 136, 1,3-dimethyl-6-{4-[3-(4-benzoyl-2-nitrophenyl)propyl]piperazin-1-yl}-2,4(1H,3H)-pyrimidinedione hydrochloride] | 14 |  | 7.7 | 15.4 | 15.4 | 11 |  |  |  | 
Cn1c(N2CCN(CCCOc3ccc([N+](=O)[O-])cc3O)CC2)cc(=O)n(C)c1=O [Compound 162, 1,3-dimethyl-6-{4-[3-(2-hydroxy-4-nitrophenyloxy)propyl]piperazin-1-yl}-2,4(1H,3H)-pyrimidinedione hydrochloride] | 41 | 0 | 0 | 0 | 0 | 19 | 60 |  |  | 
Cn1c(N2CCN(c3ccc([N+](=O)[O-])cc3)CC2)cc(=O)n(C)c1=O [Compound 1, 1,3-dimethyl-6-[4-(4-nitrophenyl)piperazin-1-yl]-2,4(1H,3H)-pyrimidinedione] |  | 3.6 | 3.6 | 10.3 |  |  |  |  |  | 
Cn1c(N2CCN(CCCNc3ccc([N+](=O)[O-])cc3)CC2)cc(=O)n(C)c1=O [Compound 58] | 18 |  |  |  |  | 10 | 28 |  |  | 
Cn1c(NCCNC2CCN(c3ccc([N+](=O)[O-])cc3)CC2)cc(=O)n(C)c1=O [Compound 61, 1,3-dimethyl-6-{2-[[1-(4-nitrophenyl)piperidin-4-yl]amino]ethylamino}-2,4(1H,3H)-pyrimidinedione oxalate] |  | 8.3 | 8.3 | 8.3 |  |  |  |  |  | 
Cn1c(NCCN(CCO)CCCc2ccc([N+](=O)[O-])cc2)c([N+](=O)[O-])c(=O)n(C)c1=O [Compound 180, 1,3-dimethyl-6-{2-[N-(2-hydroxethyl)-3-(4-nitrophenyl)propylamino]ethylamino}-5-nitro-2,4(1H,3H)-pyrimidinedione hydrochloride] |  |  |  |  |  |  |  | 11 | 20 | 26
Cn1c(N2CCN(CCCOc3ccc([N+](=O)[O-])cc3C(=O)c3ccccc3O)CC2)cc(=O)n(C)c1=O [Compound 104, 1,3-dimethyl-6-{4-<3-[2-(2-hydroxybenzoyl)-4-nitrophenoxy]propyl>piperazin-1-yl}-2,4(1H,3H)-pyrimidinedione oxalate] | 16 |  |  |  |  |  | 25 |  |  | 
CC(=O)c1cc([N+](=O)[O-])ccc1NCCCN1CCN(c2cc(=O)n(C)c(=O)n2C)CC1 [Compound 120, 1,3-dimethyl-6-{4-[3-(2-acetyl-4-nitroanilino)propyl]piperazin-1-yl}-2,4(1H,3H)-pyrimidinedione oxalate] | 27 |  |  |  |  | 16 | 29 |  |  | 
Cn1c(N2CCN(CC(=O)Nc3ccc([N+](=O)[O-])cc3)CC2)cc(=O)n(C)c1=O [Compound 47, 1,3-dimethyl-6-{4-[N-(4-nitrophenyl)carbamoylmethyl]piperazin-1-yl}-2,4(1H,3H)pyrimidinedione oxalate] | 11 |  |  |  |  | 5 | 16 |  |  | 
